# Measured values: US20170051149A1, “AZOARYLS AS REVERSIBLY MODULATABLE TUBULIN INHIBITORS” (ECOLE NORMALE SUPERIEURE DE LYON, priority 2014, published 2017)
# What was measured:
# Test in all cases: nuclear fragmentation (subG1, Nicoletti), induction of apoptosis
# Type in all cases: cell-based
# HeLa cells = conditions: 30 h
# Experimental: (§1) Different cell types, including MDA-MB-231, Jurkat, HeLa and HepG2 cells, were treated with indicated concentrations of compound I.1 and exposed to a 390 nm toxic regime, a rescue regime with both 390 nm and 515 nm light, or kept in the dark. Following the treatment, cells were stained with PI and the percentage of cells containing a hypodiploid amount of DNA (subG1 phase of cell cycle), was determined. Briefly, prior to analysis, cells were harvested on ice and incubated in a hypotonic buffer [0.1% sodium citrate, 0.1% Triton X-100 and 50 μg/mL propidium iodide (PI)] for 30 min at 4° C. Following the PI staining cells were analysed by flow cytometry using FACSCalibur flow cytometer (Becton Dickinson, Heidelberg, Germany) and Cell Quest Pro Software (Becton Dickinson).
# Jurkat cells = conditions: 48 h
# Experimental: as §1
# HepG2 cells = conditions: 48 h
# Experimental: as §1
smiles,measurement,setting,value
"COc1ccc(N=Nc2cc(OC)c(OC)c(OC)c2)cc1O [I.1, 2-methoxy-5-((3,4,5-trimethoxyphenyl)diazenyl)phenol]",mean % subG1 phase,"HeLa cells; 200 nM, 390 nm light (1 s pulses every 15 min)",2.4%
same,mean % subG1 phase,"HeLa cells; 200 nM, dark",1.8%
same,mean % subG1 phase,"HeLa cells; 600 nM, 390 nm light (1 s pulses every 15 min)",6.2%
same,mean % subG1 phase,"HeLa cells; 600 nM, dark",2.3%
same,mean % subG1 phase,"HeLa cells; 1.5 μM, 390 nm light (1 s pulses every 15 min)",16.1%
same,mean % subG1 phase,"HeLa cells; 1.5 μM, dark",2.9%
same,mean % subG1 phase,"HeLa cells; 5 μM, 390 nm light (1 s pulses every 15 min)",12.8%
same,mean % subG1 phase,"HeLa cells; 5 μM, dark",3.2%
same,mean % subG1 phase,"Jurkat cells; 5 nM, 390 nm (350 ms pulses every 5 min)",2.7%
same,mean % subG1 phase,"Jurkat cells; 5 nM, dark",3.0%
same,mean % subG1 phase,"Jurkat cells; 50 nM, 390 nm (350 ms pulses every 5 min)",4.9%
same,mean % subG1 phase,"Jurkat cells; 50 nM, dark",3.4%
same,mean % subG1 phase,"Jurkat cells; 100 nM, 390 nm (350 ms pulses every 5 min)",9.1%
same,mean % subG1 phase,"Jurkat cells; 100 nM, dark",3.5%
same,mean % subG1 phase,"Jurkat cells; 150 nM, 390 nm (350 ms pulses every 5 min)",18.5%
same,mean % subG1 phase,"Jurkat cells; 150 nM, dark",3.3%
same,mean % subG1 phase,"Jurkat cells; 200 nM, 390 nm (350 ms pulses every 5 min)",49.7%
same,mean % subG1 phase,"Jurkat cells; 200 nM, dark",3.0%
same,mean % subG1 phase,"Jurkat cells; 400 nM, 390 nm (350 ms pulses every 5 min)",88.5%
same,mean % subG1 phase,"Jurkat cells; 400 nM, dark",4.4%
same,mean % subG1 phase,"Jurkat cells; 800 nM, 390 nm (350 ms pulses every 5 min)",89.5%
same,mean % subG1 phase,"Jurkat cells; 800 nM, dark",5.5%
same,mean % subG1 phase,"Jurkat cells; 1.5 μM, 390 nm (350 ms pulses every 5 min)",89.6%
same,mean % subG1 phase,"Jurkat cells; 1.5 μM, dark",7.9%
same,mean % subG1 phase,"Jurkat cells; 5 μM, 390 nm (350 ms pulses every 5 min)",91.0%
same,mean % subG1 phase,"Jurkat cells; 5 μM, dark",12.0%
same,mean % subG1 phase,"HepG2 cells; 100 nM, HepG2, 390 nm light (250 ms pulses every 15 s)",5.4%
same,mean % subG1 phase,"HepG2 cells; 100 nM, HepG2, dark",2.5%
same,mean % subG1 phase,"HepG2 cells; 600 nM, HepG2, 390 nm light (250 ms pulses every 15 s)",5.2%
same,mean % subG1 phase,"HepG2 cells; 600 nM, HepG2, dark",3.1%
same,mean % subG1 phase,"HepG2 cells; 1 μM, HepG2, 390 nm light (250 ms pulses every 15 s)",4.6%
same,mean % subG1 phase,"HepG2 cells; 1 μM, HepG2, dark",2.3%
same,mean % subG1 phase,"HepG2 cells; 3 μM, HepG2, 390 nm light (250 ms pulses every 15 s)",6.5%
same,mean % subG1 phase,"HepG2 cells; 3 μM, HepG2, dark",1.9%
same,mean % subG1 phase,"HepG2 cells; 10 μM, HepG2, 390 nm light (250 ms pulses every 15 s)",14%
same,mean % subG1 phase,"HepG2 cells; 10 μM, HepG2, dark",2.8%
